Columns and labels:
[1] = Oral bioavailability in rat at 2 mg/kg; type: ADME, organism-based; conditions: in vivo
[2] = Cmax in rat at 2 mg/kg, po; type: ADME, organism-based; set-up: dose 2 mg/kg, route oral; conditions: in vivo
Canis familiaris [3] = assay: Dose normalized AUC in dog at 1 mg/kg, po; type: ADME, organism-based, Canis lupus familiaris; set-up: dose 1 mg/kg, route oral; conditions: in vivo
[4] = biological target: Sodium channel protein type 5 subunit alpha (Homo sapiens, UniProt Q14524); assay: Inhibition of NaV1.5
[5] = biological target: Voltage-dependent L-type calcium channel subunit alpha-1C (Rattus norvegicus, UniProt P22002); assay: Inhibition of rat CaV1.2
[6] = Volume of distribution at steady state in dog at 0.5 mg/kg, iv; type: ADME, organism-based, Canis lupus familiaris; set-up: dose 0.5 mg/kg, route intravenous; conditions: in vivo, read-out: Vdss
[7] = Oral bioavailability in dog at 1 mg/kg; type: ADME, organism-based, Canis lupus familiaris; conditions: in vivo
[8] = Volume of distribution at steady state in rat at 1 mg/kg, iv; type: ADME, organism-based; set-up: dose 1 mg/kg, route intravenous; conditions: in vivo, read-out: Vdss
[9] = Plasma clearance in dog at 0.5 mg/kg, iv; type: ADME, organism-based, Canis lupus familiaris; set-up: dose 0.5 mg/kg, route intravenous
[10] = Half life in dog at 0.5 mg/kg, iv; type: ADME, organism-based, Canis lupus familiaris; set-up: dose 0.5 mg/kg, route intravenous; conditions: in vivo
CYP2C9 = CYP2C9 (Homo sapiens, UniProt P11712); assay: Inhibition of CYP2C9 at 10 uM; type: ADME
Sequence of CYP2C9 (P11712 whole entry): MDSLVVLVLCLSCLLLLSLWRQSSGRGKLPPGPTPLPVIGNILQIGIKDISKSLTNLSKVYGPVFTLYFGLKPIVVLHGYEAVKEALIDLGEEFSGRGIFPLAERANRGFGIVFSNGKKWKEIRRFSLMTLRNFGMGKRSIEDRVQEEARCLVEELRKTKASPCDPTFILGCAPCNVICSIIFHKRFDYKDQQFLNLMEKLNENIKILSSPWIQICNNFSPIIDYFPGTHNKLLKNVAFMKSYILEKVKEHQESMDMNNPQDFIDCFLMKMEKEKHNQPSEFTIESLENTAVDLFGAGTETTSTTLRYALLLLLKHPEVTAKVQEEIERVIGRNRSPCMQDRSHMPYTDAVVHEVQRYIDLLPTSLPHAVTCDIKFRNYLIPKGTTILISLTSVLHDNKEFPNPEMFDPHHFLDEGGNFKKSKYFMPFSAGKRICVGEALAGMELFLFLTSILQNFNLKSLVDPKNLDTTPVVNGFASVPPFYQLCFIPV

Cytochrome P450 2C9 = Cytochrome P450 2C9 (Homo sapiens, UniProt P11712); assay: Inhibition of CYP2C9; type: ADME
Sequence of Cytochrome P450 2C9 (P11712 whole entry): as above

[11] = Cmax in monkey at 1 mg/kg, po; type: ADME, organism-based, Macaca mulatta; set-up: dose 1 mg/kg, route oral; conditions: rhesus monkey, in vivo
[12] = Half life in rat at 1 mg/kg, iv; type: ADME, organism-based; set-up: dose 1 mg/kg, route intravenous; conditions: in vivo
Rattus norvegicus [13] = assay: Dose normalized AUC in rat at 1 mg/kg, iv; type: ADME, organism-based; set-up: dose 1 mg/kg, route intravenous; conditions: in vivo
CYP3A4 = CYP3A4 (Homo sapiens, UniProt P08684); assay: Inhibition of CYP3A4 at 10 uM; type: ADME
Sequence of CYP3A4 (P08684 whole entry): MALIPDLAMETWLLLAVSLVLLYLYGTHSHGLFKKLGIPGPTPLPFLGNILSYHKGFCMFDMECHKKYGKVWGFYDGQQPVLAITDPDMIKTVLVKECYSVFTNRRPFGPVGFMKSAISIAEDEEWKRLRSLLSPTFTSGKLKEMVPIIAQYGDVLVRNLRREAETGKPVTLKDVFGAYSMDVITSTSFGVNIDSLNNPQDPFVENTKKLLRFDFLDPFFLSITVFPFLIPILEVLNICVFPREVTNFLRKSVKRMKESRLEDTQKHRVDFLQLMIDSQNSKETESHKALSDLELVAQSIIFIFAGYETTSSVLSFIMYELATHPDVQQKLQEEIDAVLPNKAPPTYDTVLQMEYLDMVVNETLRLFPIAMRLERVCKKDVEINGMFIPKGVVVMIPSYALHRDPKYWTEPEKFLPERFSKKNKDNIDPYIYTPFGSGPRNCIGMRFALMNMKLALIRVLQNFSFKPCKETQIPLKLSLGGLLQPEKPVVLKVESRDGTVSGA

Cytochrome P450 3A4 = Cytochrome P450 3A4 (Homo sapiens, UniProt P08684); assay: Inhibition of CYP3A4; type: ADME
Sequence of Cytochrome P450 3A4 (P08684 whole entry): as above

[14] = biological target: T1, Tyrosine-protein kinase JAK2 (Homo sapiens, UniProt O60674, V617F); assay: Inhibition of JAK2 V617F mutant
T1 sequence (O60674 whole entry V617F): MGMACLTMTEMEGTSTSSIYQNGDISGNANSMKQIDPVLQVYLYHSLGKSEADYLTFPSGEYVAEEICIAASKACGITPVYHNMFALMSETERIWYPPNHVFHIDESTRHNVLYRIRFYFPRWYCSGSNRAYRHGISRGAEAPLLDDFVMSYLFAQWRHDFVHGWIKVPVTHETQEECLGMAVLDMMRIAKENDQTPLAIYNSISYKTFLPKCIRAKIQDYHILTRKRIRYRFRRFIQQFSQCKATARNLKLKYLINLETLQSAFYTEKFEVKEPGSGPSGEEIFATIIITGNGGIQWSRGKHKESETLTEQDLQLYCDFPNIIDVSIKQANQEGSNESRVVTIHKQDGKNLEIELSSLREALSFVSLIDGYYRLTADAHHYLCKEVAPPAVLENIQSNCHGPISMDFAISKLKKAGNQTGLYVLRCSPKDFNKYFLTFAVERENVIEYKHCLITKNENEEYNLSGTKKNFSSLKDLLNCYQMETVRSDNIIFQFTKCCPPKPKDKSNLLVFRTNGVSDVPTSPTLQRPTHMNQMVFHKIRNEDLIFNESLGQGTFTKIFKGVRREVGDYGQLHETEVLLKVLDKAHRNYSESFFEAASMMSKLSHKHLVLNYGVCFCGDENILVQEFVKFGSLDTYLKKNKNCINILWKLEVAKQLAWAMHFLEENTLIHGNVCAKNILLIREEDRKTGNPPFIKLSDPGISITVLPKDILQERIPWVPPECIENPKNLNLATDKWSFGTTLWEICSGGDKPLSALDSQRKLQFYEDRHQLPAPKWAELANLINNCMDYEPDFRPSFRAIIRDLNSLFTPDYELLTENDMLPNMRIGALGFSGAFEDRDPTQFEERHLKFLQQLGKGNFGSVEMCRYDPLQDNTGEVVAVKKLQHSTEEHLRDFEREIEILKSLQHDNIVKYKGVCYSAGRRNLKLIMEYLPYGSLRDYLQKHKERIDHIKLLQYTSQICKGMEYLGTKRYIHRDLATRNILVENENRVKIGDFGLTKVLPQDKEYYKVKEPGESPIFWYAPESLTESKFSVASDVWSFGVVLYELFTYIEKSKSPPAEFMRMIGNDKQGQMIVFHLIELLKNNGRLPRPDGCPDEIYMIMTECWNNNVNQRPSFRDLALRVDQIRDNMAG

[15] = biological target: T1, Tyrosine-protein kinase JAK2; assay: Inhibition of JAK2 V617F mutant-mediated STAT5 phosphorylation in mouse BAF3 cells; type: cell-based
Cytochrome P450 2D6 = Cytochrome P450 2D6 (Homo sapiens, UniProt P10635); assay: Inhibition of CYP2D6; type: ADME
Sequence of Cytochrome P450 2D6 (P10635 whole entry): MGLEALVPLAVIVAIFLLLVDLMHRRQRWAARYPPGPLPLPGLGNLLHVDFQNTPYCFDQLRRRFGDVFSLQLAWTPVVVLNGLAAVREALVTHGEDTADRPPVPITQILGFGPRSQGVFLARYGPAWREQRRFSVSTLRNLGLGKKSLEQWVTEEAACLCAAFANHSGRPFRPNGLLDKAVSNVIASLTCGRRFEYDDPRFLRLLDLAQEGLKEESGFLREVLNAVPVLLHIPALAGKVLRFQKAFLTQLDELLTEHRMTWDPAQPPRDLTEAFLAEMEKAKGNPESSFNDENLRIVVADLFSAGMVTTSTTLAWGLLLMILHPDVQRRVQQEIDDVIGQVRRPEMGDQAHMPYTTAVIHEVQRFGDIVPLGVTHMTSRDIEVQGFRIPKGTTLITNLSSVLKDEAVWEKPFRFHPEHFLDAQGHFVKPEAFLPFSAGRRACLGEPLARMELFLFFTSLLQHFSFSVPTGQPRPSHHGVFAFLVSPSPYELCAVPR

[16] = Clearance in rat at 1 mg/kg, iv; type: ADME, organism-based; set-up: dose 1 mg/kg, route intravenous; conditions: in vivo
[17] = Half life in monkey at 0.5 mg/kg, iv; type: ADME, organism-based, Macaca mulatta; set-up: dose 0.5 mg/kg, route intravenous; conditions: rhesus monkey, in vivo
[18] = Cmax in dog at 1 mg/kg, po; type: ADME, organism-based, Canis lupus familiaris; set-up: dose 1 mg/kg, route oral; conditions: in vivo
[19] = Plasma clearance in rat at 1 mg/kg, iv; type: ADME, organism-based; set-up: dose 1 mg/kg, route intravenous
[20] = Volume of distribution at steady state in monkey at 0.5 mg/kg, iv; type: ADME, organism-based, Macaca mulatta; set-up: dose 0.5 mg/kg, route intravenous; conditions: rhesus monkey, in vivo, read-out: Vdss
[21] = biological target: T2, Tyrosine-protein kinase JAK2 (Homo sapiens, UniProt O60674); assay: Inhibition of JAK2-mediated STAT5 phosphorylation in human HEL 92.1.7 irf1-bla cells; type: cell-based
T2 sequence (O60674 whole entry): as the sequence (O60674 whole entry V617F) above, with F617V counted along it

Mus musculus [22] = species on record: Mus musculus; assay: Prevention of darbepoetin-induced elevation of hematocrit in C57/BL6 mouse PV model; type: functional, organism-based; conditions: C57Bl/6
Rattus norvegicus [23] = assay: Dose normalized AUC in rat at 2 mg/kg, po; type: ADME, organism-based; set-up: dose 2 mg/kg, route oral; conditions: in vivo
Mus musculus [24] = species on record: Mus musculus; assay: Prevention of darbepoetin-induced increase in spleen weight in C57/BL6 mouse PV model; type: functional, organism-based; conditions: C57Bl/6
Mus musculus [25] = assay: Reduction in pSTAT5 concentration in po dosed darbepoetin-stimulated C57B1/6 mouse
[26] = Tmax in monkey at 1 mg/kg, po; type: ADME, organism-based, Macaca mulatta; set-up: dose 1 mg/kg, route oral; conditions: rhesus monkey, in vivo
[27] = biological target: T2, Tyrosine-protein kinase JAK2; assay: Inhibition of JAK2 using biotin-EQEDEPEGDYFEWLE- NH2 as substrate
[28] = Oral bioavailability in monkey at 1 mg/kg; type: ADME, organism-based, Macaca mulatta; conditions: rhesus monkey, in vivo
[29] = Tmax in rat at 2 mg/kg, po; type: ADME, organism-based; set-up: dose 2 mg/kg, route oral; conditions: in vivo
Rhesus monkey [30] = assay: Dose normalized AUC in monkey at 0.5 mg/kg, iv; type: ADME, organism-based, Macaca mulatta; set-up: dose 0.5 mg/kg, route intravenous; conditions: in vivo
[31] = Tmax in dog at 1 mg/kg, po; type: ADME, organism-based, Canis lupus familiaris; set-up: dose 1 mg/kg, route oral; conditions: in vivo
[32] = biological target: Potassium voltage-gated channel subfamily E member 1 (Homo sapiens, UniProt P15382); assay: Inhibition of Iks channel
[33] = Plasma clearance in monkey at 0.5 mg/kg, iv; type: ADME, organism-based, Macaca mulatta; set-up: dose 0.5 mg/kg, route intravenous; conditions: rhesus monkey
Rhesus monkey [34] = assay: Dose normalized AUC in monkey at 1 mg/kg, po; type: ADME, organism-based, Macaca mulatta; set-up: dose 1 mg/kg, route oral; conditions: in vivo
Canis familiaris [35] = assay: Dose normalized AUC in dog at 0.5 mg/kg, iv; type: ADME, organism-based, Canis lupus familiaris; set-up: dose 0.5 mg/kg, route intravenous; conditions: in vivo

bioavailability [1]: 67% | Cmax [2]: 600 nM | AUC/dose (Canis familiaris [3]): 2.5 µM·h/mg/kg | Vd [6]: 6.1 L/kg | bioavailability [7]: 120% | Vd [8]: 2.5 L/kg | clearance [9]: 18 mL/min/kg | half-life [10]: 5.2 h | inhibition at 10 µM (CYP2C9): 34% | IC50 (Cytochrome P450 2C9): > 75000 nM | Cmax [11]: 200 nM | half-life [12]: 4.5 h | AUC/dose (Rattus norvegicus [13]): 5.3 µM·h/mg/kg | inhibition at 10 µM (CYP3A4): 30% | IC50 (Cytochrome P450 3A4): > 75000 nM | IC50 [14]: 0.4 nM | IC50 [15]: 11 nM | IC50 (Cytochrome P450 2D6): > 75000 nM | clearance [16]: 7 mL/min/kg | half-life [17]: 7.3 h | Cmax [18]: 300 nM | clearance [19]: 7.4 mL/min/kg | Vd [20]: 4.7 L/kg | IC50 [21]: 25 nM | AUC/dose (Rattus norvegicus [23]): 3.4 µM·h/mg/kg | IC50 (Mus musculus [25]): 1200 nM | Tmax [26]: 6 h | IC50 [27]: 0.8 nM | bioavailability [28]: 66% | Tmax [29]: 6 h | AUC/dose (Rhesus monkey [30]): 5.2 µM·h/mg/kg | Tmax [31]: 5.1 h | IC50 [32]: > 10000 nM | clearance [33]: 7.4 mL/min/kg | AUC/dose (Rhesus monkey [34]): 3.4 µM·h/mg/kg | AUC/dose (Canis familiaris [35]): 2.4 µM·h/mg/kg
SMILES: NC(=O)c1cnc(N[C@H](C2CC2)C(F)(F)F)c2c1[nH]c1cc(-c3cnc(N)nc3)ccc12
IC50 [4]: > 30000 nM | IC50 [5]: > 30000 nM | Activity (Mus musculus [22]): Dose-dependent effect | Activity (Mus musculus [24]): Dose-dependent effect

Reference: ChEMBL document CHEMBL1833803, “Discovery of 1-amino-5H-pyrido[4,3-b]indol-4-carboxamide inhibitors of Janus kinase 2 (JAK2) for the treatment of myeloproliferative disorders” (J Med Chem, 2011)
